Results: PubChem BioAssay (NCI)
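Interpolation was linear, between the two tested concentrations surrounding the appropriate level; five concentrations were tested over 48 hours in 96-well plates. GI50 is the concentration that inhibits growth by half. TGI marks complete inhibition of growth.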

How the values were obtained:
Test in all cases: inhibition of tumour cell growth, NCI panel, 48 h
[1] = system: A498 renal
[2] = system: A549 NSCLC
[3] = system: HOP-92 NSCLC
[4] = system: K-562 leukemia
[5] = system: LOX IMVI melanoma
[6] = system: MDA-MB-435
[7] = system: NCI/ADR-RES ovarian
[8] = system: OVCAR-8 ovarian
[9] = system: SN12C renal
[10] = system: TK-10 renal

SMILES | TGI [1] [µM] | TGI [2] [µM] | TGI [3] [µM] | TGI [4] [µM] | TGI [5] [µM] | TGI [6] [µM] | TGI [7] [µM] | TGI [8] [µM] | TGI [9] [µM] | TGI [10] [µM] | GI50 [1] [µM] | GI50 [2] [µM] | GI50 [3] [µM] | GI50 [4] [µM] | GI50 [5] [µM] | GI50 [6] [µM] | GI50 [7] [µM] | GI50 [8] [µM] | GI50 [9] [µM] | GI50 [10] [µM]
CC(C)Nc1[nH]c(C(=O)c2ccccc2)c(N)c1C(=S)Nc1ccccc1 | > 100 | > 100 | > 100 | > 100 | 80.4 | 99.1 | > 100 | > 100 | > 100 | > 100 |  |  |  |  |  |  |  |  |  | 
Cc1cn(CC2=NCCN2)c(=O)[nH]c1=O | > 100 | > 100 | > 100 | > 100 | > 100 | > 100 | > 100 | > 100 | > 100 | > 100 |  |  |  |  |  |  |  |  |  | 
COc1cc2c(cc1OC)C1Cc3ccccc3CCN1CC2 (stereo not given) | > 100 | > 100 | > 100 | > 100 | > 100 | > 100 | > 100 | > 100 | > 100 | > 100 |  |  |  |  |  |  |  |  |  | 
Nc1nc(Cl)c(C=O)c(NCC2(CO)CC(CCc3ccccc3)C2)n1 (stereo not given) | 42.1 | 25.5 | 4.46 | 4.57 | 10.8 | 17.9 | 47.6 | 6.03 | 19 | 62.4 |  |  |  |  |  |  |  |  |  | 
N#C/C(=C1\N=C(c2ccccc2O)Oc2ccccc21)c1ccc([N+](=O)[O-])cc1 | > 100 | > 100 | > 100 | > 100 | > 100 | > 100 | > 100 | > 100 | > 100 | > 100 |  |  |  |  |  |  |  |  |  | 
Clc1ccccc1/C=C/c1nsc(/C=C/c2ccccc2Cl)n1 | > 100 | > 100 | > 100 | 48.5 | > 100 | > 100 | > 100 | > 100 | 51.5 | 78.1 |  |  |  |  |  |  |  |  |  | 
COc1ncnc2c1cnn2Cc1cn(COCC(O)CO)nn1 (stereo not given) | > 100 | > 100 | > 100 | > 100 | > 100 | > 100 | > 100 | > 100 | > 100 | > 100 |  |  |  |  |  |  |  |  |  | 
CC(C)(C)c1cc(C(=O)/C=C/c2ccc(O)c(O)c2O)cc(C(C)(C)C)c1O | 34.4 | 40.9 | > 42.6 | 21.7 | 24.3 | 36.7 | 14.8 | > 63.7 | 13.8 | 18.3 |  |  |  |  |  |  |  |  |  | 
O=C(c1ccc(Cl)cc1Cl)N(Cc1cccnc1)C(=S)N(Cc1cccnc1)C(=O)c1ccc(Cl)cc1Cl | 24.4 | 38 | 12 | > 100 | 16.7 | 66 | 76 | 13.5 | 18.3 | 8.7 |  |  |  |  |  |  |  |  |  | 
Cc1nc2c(o1)C(=O)c1ccccc1C2=NC1CCCCC1N (stereo not given) | 3.12 | 2.91 | 1.97 | > 100 | 0.66 | 0.302 | 1.2 | 1.21 | 1.16 | 3.84 |  |  |  |  |  |  |  |  |  | 
Cn1c(=O)n2n(c1=O)Cc1cccc3cccc(c13)C2 | > 100 | > 100 | > 100 | > 100 | > 100 | > 100 | > 100 | > 100 | > 100 | > 100 |  |  |  |  |  |  |  |  |  | 
COC(=O)C1Cc2c([nH]c3ccccc23)C(c2cccc(O)c2)N1 (stereo not given) | > 100 | > 100 | 79.9 | > 100 | > 100 | 36.6 | 49.2 | > 100 | > 100 | > 100 |  |  |  |  |  |  |  |  |  | 
O/N=c1/ccn(O)c2ccccc12 | 1.75 | 6.74 | 8.65 | > 19.9 | 5.67 | 17.4 | 4.7 | 1.81 | 5.7 | 5.87 |  |  |  |  |  |  |  |  |  | 
O=C(c1ccccc1)c1nn(-c2ccc(Cl)cc2)c2nc3nc(-c4ccccc4)cc(=O)n3nc12 | > 100 | > 100 | 74.7 | > 100 | > 100 | > 100 | > 100 | > 100 | 59.8 | 85.6 | 58.8 | 66.3 | 22.1 | 50.1 | 28.1 | 6.65 | 35.5 | 48.3 | 24 | 31.8
COc1c(Cl)ccc(Cl)c1C(=O)NNC(=O)c1c(Cl)c(Cl)c(Cl)c(Cl)c1-c1nc2ccc(C(=O)c3ccccc3)cc2[nH]1 | > 100 | > 100 | > 100 | > 100 | > 100 | > 100 | > 100 | > 100 | > 100 | > 100 |  |  |  |  |  |  |  |  |  | 
CCOC(=O)c1cccc(NC(=O)CBr)c1 | 14.7 | 3.96 | 4.14 | 1.63 | 0.407 | 2.51 | 4.39 | > 21.6 | 0.907 | 3.18 |  |  |  |  |  |  |  |  |  | 
